What is called IC50 is the midpoint of a concentration-inhibition curve.

Where “and” joins values, the source holds several entries; their conditions need not be identical. Identical values can stand only once.

The subject of one assay is SetDB1 H3K9me3 HMTase. Particulars: cited from earlier work.
The subject of a further assay is SCNT blastocysts. Description: ntESC derivation from SCNT blastocysts. In kind it is cell-based, mouse. As for the experimental part:
Blastocysts were denuded by acid tyrode treatment and cultured on mitomycin treated MEF feeder cells and in DMEM supplemented with 5% FBS, 10% KnockOut serum replacement (Life Technologies #10828-028), 0.1 mM non-essential amino acids, 2 mM GlutaMAX, 50 U/ml penicillin-streptomycin, 0.1 mM 2-mercaptoethanol and 2000 U leukemia inhibitory factor (LIF, Millipore #ESG1107) at 37° C. 5% CO2. Four to five days later, outgrowths from attached embryos were dissociated with 0.25% trypsin and passaged all onto new feeder cells. On the following day, the medium was replaced with N2B27-LIF media [DMEM/F12 (Life Technologies #10565-042) supplemented with 0.1 mM non-essential amino acids, 2 mM GlutaMAX, 50 U/ml penicillin-streptomycin, 0.1 mM 2-mercaptoethanol, 0.5×N2 supplement (Life technologies #17502-048), 0.5× B27 supplement (Life technologies #17504-044), […] CHIR99021 (STEMGENT #04-0004), 0.5 μM PD0325901 (STEMGENT #04-0006) and 1000 U LIF]. Five days later, expanded cells were reseeded as established ntESC.

For the next assay, the system named is SCNT embryos. Description: Preimplantation development of SCNT embryos cultured in vitro. In kind it is cell-based, mouse. Particulars: cumulus donor cells (BDF1, female), TSA treatment 15 nM for 8 h, water or mRNA 1800 ng/μl injected. The text has this:
C57BL/6J female mice were mated with DBA/2J males to produce B6D2F1/J (BDF1) mice. BDF1 and CD-1 (ICR) adult females were used for the collection of recipient oocytes and embryo transfer recipients, respectively. BDF1 mice were used for the collection of donor somatic cells for the analyses of development. (C57BL/6×CAST/EiJ) F1 mice were used for the collection of donor cells for RNA-seq. E13.5 embryos harboring GOF18 delta-PE (Jackson Laboratory, 004654: Tg(Pou5f1-EGFP)2Mnn, C57BL/6J background) were used for the isolation of mouse embryonic fibroblasts (MEF). All animal experiments were approved by the Institutional Animal Care and Use Committee of Harvard Medical School.
Cumulus cells were collected from adult BDF1 females through superovulation by injecting 7.5 IU of pregnant mare serum gonadotropin (PMSG; Harbor) and 7.5 IU of human chorionic gonadotropin (hCG; Millipore). Fifteen hours after the hCG injection, cumulus-oocyte complexes (COCs) were collected from the oviducts and briefly treated with Hepes-buffered potassium simplex-optimized medium (KSOM) containing 300 U/ml bovine testicular hyaluronidase (Calbiochem #385931) to obtain dissociated cumulus cells. Sertoli cells were collected from testes of 3- to 5-day-old BDF1 male mice as described (Matoba et al., 2011). Testicular masses were incubated in PBS containing 0.1 mg/ml collagenase (Life Technologies #17104-019) for 30 min at 37° C. followed by 5 min treatment with 0.25% Trypsine with 1 mM EDTA (Life Technologies #25200-056) at room temperature. After washing for four times with PBS containing 3 mg/ml bovine serum albumin, the dissociated cells were suspended in Hepes-KSOM medium.
Primary mouse embryonic fibroblast (MEF) cells were established from GOF18 delta-PE mouse embryos at 13.5 dpc. After removal of head and all organs, minced tissue from remaining corpus was dissociated in 500 μl of 0.25% Trypsine with 1 mM EDTA for 10 min at 37° C. Cell suspension was diluted with equal amount of DMEM (Life Technologies #11995-073) containing 10% FBS and Penicillin/Streptomycin (Life Technologies #15140-022) and pipetted up and down for 20 times. The cell suspension was diluted with fresh medium and plated onto 100 mm dishes and cultured at 37° C. Two days later, MEF cells were harvested and frozen. Frozen stocks of MEF cells were thawed and used for experiments after one passage.
siRNAs against mouse Suv39h1 (Life Technologies #s74607), Suv39h2 (Life Technologies #s82300) and Setdb1 (Life Technologies #s96549) were diluted in nuclease free water at 50 μM stock solutions. siRNAs were introduced to MEFs with Lipofectamine RNAi Max (Life technologies #35050-061) following manufacturer's protocol. Briefly, 1×10^5 MEF cells were seeded onto 24-well plate (day 0; see FIG. 5A). Twenty-four hours later, […] siRNAs were transfected into MEF cells using Lipofectamine RNAi Max (day 1). Twenty-four hours after the first transfection, the culture media was changed to fresh M293T media [DMEM supplemented with 10% FBS, 0.1 mM non-essential amino acids (Life technologies #11140-050), 2 mM GlutaMAX (Life technologies #35050-079), 50 U/ml penicillin-streptomycin and 0.1 mM 2-mercaptoethanol (Life technologies #21985-023)] (day 2). On day 3, MEF cells were reseeded onto 24-well plates at the density of 1×10^5 cells. Then transfection was repeated once as described above (day 4). Forty-eight hours after the second transfection (day 6), MEF cells were used for immunostaining, RT-qPCR or SCNT.
Somatic cell nuclear transfer was carried out as described previously (Matoba et al., 2011). Briefly, recipient MII oocytes were collected from superovulated adult BDF1 females by brief treatment with 300 U/ml bovine testicular hyaluronidase (Calbiochem). Isolated MII oocytes were enucleated in Hepes-buffered KSOM medium containing 7.5 μg/ml of cytochalasin B (Calbiochem #250233). […]

In a further assay the target is Suv39h2 (Homo sapiens, UniProt Q9H5I1). The settings on record: cited from earlier work.
Suv39h2, sequence (Q9H5I1 whole entry, species assumed): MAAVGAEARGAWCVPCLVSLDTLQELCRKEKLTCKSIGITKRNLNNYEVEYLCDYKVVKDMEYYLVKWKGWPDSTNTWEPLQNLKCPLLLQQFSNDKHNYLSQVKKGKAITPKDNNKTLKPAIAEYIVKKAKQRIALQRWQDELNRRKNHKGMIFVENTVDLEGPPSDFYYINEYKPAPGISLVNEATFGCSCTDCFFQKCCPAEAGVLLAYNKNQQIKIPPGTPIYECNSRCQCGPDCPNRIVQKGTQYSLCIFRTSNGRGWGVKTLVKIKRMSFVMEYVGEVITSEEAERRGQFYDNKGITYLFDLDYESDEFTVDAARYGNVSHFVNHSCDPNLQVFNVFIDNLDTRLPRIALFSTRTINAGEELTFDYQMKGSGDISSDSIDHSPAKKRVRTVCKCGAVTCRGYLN
[1] abbreviates: cumulus donor cells (BDF1, female), TSA treatment 15 nM for 8 h, water or mRNA 1800 ng/μl injected.

Take `Nc1nccc2c1ncn2[C@@H]1C=C(CO)[C@@H](O)[C@H]1O` [DZNep, 3-Deazaneplanocin A]: the “levels of H3K27me3 and H3K9me3 (in words)” value in the assay with SetDB1 H3K9me3 HMTase was “reduced levels of both H3K27me3 and H3K9me3”.
As to `CC(/C=C/C(=O)NO)=C\[C@@H](C)C(=O)c1ccc(N(C)C)cc1` [TSA, trichostatin A, reference compound], the “efficiency of attachment or ntESC derivation per blastocyst, compared to control (in words)” value in the assay with SCNT blastocysts (SCNT blastocysts from cumulus donor cells) was “did not show any significant difference”. Moreover, in the assay on SCNT blastocysts (setting [1]), the “No. of blastocyst attached to feeder cells” value is listed as 14, the “No. of established ntESC lines” value is listed as 8, the “blastocyst attached to feeder cells (% per blast)” value came to 70.0% and the “established ntESC lines (% per MII oocyte)” value was “(18.2) %”. In addition, the “established ntESC lines (% per blast)” value in the assay on SCNT blastocysts (setting [1]) is “(40.0) %”. Moreover, in the assay on SCNT embryos, the “% 4-cell per 2-cell ± SD” value is on record as 72.1 ± 10.9 %; the “% blast per 2-cell ± SD” value was 53.8% and 53.8 ± 6.2 %; the “% cleaved per 1-cell ± SD” value turned out to be 98.0 ± 3.4%; the “% morula per 2-cell ± SD” value stood at 60.8 ± 6.8 %. Besides, in the assay on SCNT embryos (ntESC derivation experiment), the No. of blastocyst worked out at 20 and the “blastocyst (% per 1-cell)” value is on record as 51.3%.
Turning to `COc1cc2c(NC3CCN(C(C)C)CC3)nc(C3CCCCC3)nc2cc1OCCCN1CCCC1` [UNC0638, 2-Cyclohexyl-N-(1-isopropylpiperidin-4-yl)-6-methoxy-7-(3-(pyrrolidin-1-yl)propoxy)quinazolin-4-amine], the half-maximal inhibitory concentration (IC50) on Suv39h2 was more than 10 µM.

The record behind these values is patent publication US12644133B2, “Methods and compositions to increase somatic cell nuclear transfer (SCNT) efficiency by removing histone H3-lysine trimethylation” (The Children's Medical Center Corporation, priority 2014, dated 2026).
